{"source": "patent US8293919B2", "about": "“Antibacterial sulfone and sulfoxide substituted heterocyclic urea compounds” (Crestone, Inc., priority 2007, dated 2012)", "format_in_all_cases": "cell-based", "key": {"S. epidermidis": {"test_system": "S. epidermidis", "assay": "Bactericidal activity"}, "E. faecalis": {"test_system": "E. faecalis", "assay": "Bactericidal activity"}, "S. aureus": {"test_system": "S. aureus", "assay": "Bactericidal activity"}, "E. faecium": {"test_system": "E. faecium", "assay": "Bactericidal activity"}, "S. pyogenes": {"test_system": "S. pyogenes", "assay": "Bactericidal activity"}, "S. pneumoniae": {"test_system": "S. pneumoniae", "assay": "Bactericidal activity"}, "[1]": {"test_system": "clinically relevant resistant strains", "assay": "MIC in clinically relevant drug-resistant strains (all species together)", "experimental": "(§1) Compounds of the present invention were tested for antibacterial activity against a variety of pathogenic organisms including S. aureus, S. pneumoniae, S. pyogenes, E. faecalis, H. influenza and M. catarrhalis using a standard broth microdilution method to determine their minimum inhibitory concentrations (MICs). All compounds were tested using standard methods in accordance with CLSI guidelines (Clinical and Laboratory Standards Institute). Compounds described in Examples 1-5, 7-12, 14, 16-17, 19-30, 32-35, 37-42, 44-66, 69, 71-76, 79-84, and 87 had MIC's of 0.25-4.0 μg/mL against some strains of the major Gram-positive organisms S. aureus, S. pneumoniae, S. pyogenes, and E. faecalis.\n(§2) Compounds of the present invention were not compromised by existing resistance to all drug classes tested, including β-lactams, glycopeptides, oxazolidinones, macrolides, and fluoroquinolones. In particular, the compound described in Example 9 was active against methicillin- (oxacillin-) resistant S. aureus (MRSA), vancomycin-intermediate S. aureus (VISA), linezolid-resistant S. aureus, methicillin- (oxacillin-) resistant and mupirocin resistant S. epidermidis, macrolide-resistant S. pyogenes, macrolide-, penicillin-, and levofloxacin-resistant S. pneumoniae, vancomycin-, macrolide-, and ciprofloxacin-resistant E. faecalis (VRE) and vancomycin-, macrolide-, and ciprofloxacin-resistant E. faecium."}, "[2]": {"test_system": "resistant S. aureus (MRSA, VISA, linezolid-resistant)", "assay": "Antibacterial activity against drug-resistant strains", "experimental": "as §1, §2"}, "[3]": {"test_system": "macrolide-resistant S. pyogenes", "assay": "Antibacterial activity against drug-resistant strains", "experimental": "as §1, §2"}, "[4]": {"test_system": "macrolide-, penicillin-, and levofloxacin-resistant S. pneumoniae", "assay": "Antibacterial activity against drug-resistant strains", "experimental": "as §1, §2"}, "[5]": {"test_system": "methicillin- (oxacillin-) resistant and mupirocin resistant S. epidermidis", "assay": "Antibacterial activity against drug-resistant strains", "experimental": "as §1, §2"}, "[6]": {"test_system": "vancomycin-, macrolide-, and ciprofloxacin-resistant E. faecalis (VRE)", "assay": "Antibacterial activity against drug-resistant strains", "experimental": "as §1, §2"}, "[7]": {"test_system": "vancomycin-, macrolide-, and ciprofloxacin-resistant E. faecium", "assay": "Antibacterial activity against drug-resistant strains", "experimental": "as §1, §2"}}, "data": [{"smiles": "CCCS(=O)(=O)Cc1csc(NC(=O)NCc2ccc(Cl)c(Cl)c2)n1", "note": "[Example 9, 1-(3,4-dichlorobenzyl)-3-(4-(propylsulfonylmethyl)thiazol-2-yl)urea]", "values": [{"measurement": "bactericidal effect", "setting": "S. epidermidis", "result": "bactericidal"}, {"measurement": "bactericidal effect", "setting": "E. faecalis", "result": "bactericidal"}, {"measurement": "bactericidal effect", "setting": "S. aureus", "result": "bactericidal"}, {"measurement": "bactericidal effect", "setting": "E. faecium", "result": "bactericidal"}, {"measurement": "bactericidal effect", "setting": "S. pyogenes", "result": "bactericidal"}, {"measurement": "bactericidal effect", "setting": "S. pneumoniae", "result": "bactericidal"}, {"measurement": "MIC", "setting": "[1]; clinically relevant resistant strains", "result": "0.5 to 4", "unit": "µg/mL"}, {"measurement": "MICs in sensitive versus drug resistant strains", "setting": "[1]; sensitive versus drug resistant strains", "result": "comparable"}, {"measurement": "activity against resistant strain", "setting": "[2]; linezolid-resistant S. aureus", "result": "active"}, {"measurement": "activity against resistant strain", "setting": "[2]; methicillin- (oxacillin-) resistant S. aureus (MRSA)", "result": "active"}, {"measurement": "activity against resistant strain", "setting": "[2]; vancomycin-intermediate S. aureus (VISA)", "result": "active"}, {"measurement": "activity against resistant strain", "setting": "[3]", "result": "active"}, {"measurement": "activity against resistant strain", "setting": "[4]", "result": "active"}, {"measurement": "activity against resistant strain", "setting": "[5]", "result": "active"}, {"measurement": "activity against resistant strain", "setting": "[6]", "result": "active"}, {"measurement": "activity against resistant strain", "setting": "[7]", "result": "active"}]}]}
